The record followed here is US8637461B2, “Method of diagnosing and treating oxidative stress-impaired wound healing” (Kuwait University, priority 2011, dated 2014).

The subject of one test is protein-bound carbonyls. The test is described as follows: Protein-bound carbonyl ELISA in fibroblasts. Format: cell-based, rat. The following applies: diabetic, TNF-α- or dexamethasone-exposed cells; EUK-134. The method, then: (§1) Primary dermal fibroblasts were obtained from dorsal skin of female Goto Kakizaki (GK, age 12-15 months) rats, a model for non-obese type 2 diabetes, and their Wistar control counterparts. After sterilization in povidine solution, rat skin was washed in sterile water and rinsed in 70% ethanol in PBS. Epidermis and dermis were separated following overnight incubation in 0.25% trypsine/EDTA at 4 C. Dermis was cut into small pieces and incubated in Dulbecco's modified Eagle medium (DMEM; Invitrogen) containing collagenase (250 U/ml; Sigma) for thirty min at 37 C in 5% CO2 with constant agitation. The sections were triturated vigorously to release fibroblasts, which were collected by centrifugation. […]
(§2) A hypercortisolemic state was mimicked by exposing control fibroblasts to dexamethasone (Dexa, Sigma) administered at 20 ng/ml every other day for a duration of 8 days. […] The concentration of IGF-1 (50 ng/ml, Peprotech) was determined by prior dose response experiment.
Protein-bound carbonyl levels in fibroblasts, a marker of cumulative oxidative stress, were determined using a procedure in which a sensitive ELISA-based assay was used to measure total protein-bound carbonyls using oxidized bovine serum albumin (BSA) as standard. […]

In test [1] the test system is IRS-1. As to the kind of experiment: IRS-1 Ser307 phosphorylation in dermal fibroblasts. Format: cell-based, rat. The following applies: diabetic, TNF-α- or dexamethasone-exposed cells; EUK-134. The method, then:
as §1, §2
Levels/activities of key intracellular molecules in the IGF-1 signaling cascade including IRS-1, IRS-1 Tyr-p-612, PI3K-p85α, IRS-1 Ser-p (307), PI3K, Akt, p-Akt, INK and p-JNK were assessed using western blotting/immunoprecipitation and commercially available ELISA-based assays. […]

Another test has as its system dermal fibroblasts. As to the kind of experiment: Radiolabelled proline uptake assay (collagen synthesis) in fibroblasts. Format: cell-based, rat. The following applies: diabetic, TNF-α- or dexamethasone-exposed cells; EUK-134. As to the method: as §1, §2
The proliferation and collagen synthesis of cultured fibroblasts were determined using, respectively the 5-bromo-2-deoxyuridine (BrdU) incorporation into DNA and a radiolabelled proline uptake assay.
A radiolabel proline uptake assay was used in the quantification of the rate of collagen synthesis in cultured fibroblasts derived from various experimental groups. […]

The test system of test [2] is IRS-1. The test is described as follows: IRS-1 Tyr612 phosphorylation, immunoprecipitation/western blotting in dermal fibroblasts. The class given is cell-based, rat. As to the method:
Primary dermal fibroblasts were obtained from dorsal skin of female Goto Kakizaki (GK, age 12-15 months) rats, a model for non-obese type 2 diabetes, and their Wistar control counterparts. After sterilization in povidine solution, rat skin was washed in sterile water and rinsed in 70% ethanol in PBS. Epidermis and dermis were separated following overnight incubation in 0.25% trypsine/EDTA at 4 C. Dermis was cut into small pieces and incubated in Dulbecco's modified Eagle medium (DMEM; Invitrogen) containing collagenase (250 U/ml; Sigma) for thirty min at 37 C in 5% CO2 with constant agitation. The sections were triturated vigorously to release fibroblasts, which were collected by centrifugation. The cell pellet was washed two times with PBS, re-suspended in complete medium (DMEM supplemented with 10% fetal calf serum, penicillin (100 U/ml), streptomycin (100 μg/ml)), 2 mM L-glutamine and 10 mM HEPES) and then cultured under a standard condition.
A hypercortisolemic state was mimicked by exposing control fibroblasts to dexamethasone (Dexa, Sigma) administered at 20 ng/ml every other day for a duration of 8 days. Similarly, the state of low-grade inflammation in fibroblasts was recapitulated experimentally by exposing these cells to TNF-α (4 ng/ml every day for 4 days). […] The concentration of IGF-1 (50 ng/ml, Peprotech) was determined by prior dose response experiment.
Levels/activities of key intracellular molecules in the IGF-1 signaling cascade including IRS-1, IRS-1 Tyr-p-612, PI3K-p85α, IRS-1 Ser-p (307), PI3K, Akt, p-Akt, INK and p-JNK were assessed using western blotting/immunoprecipitation and commercially available ELISA-based assays.
Ice-cold radioimmunoprecipitation assay (RIPA) buffer was used for the extraction of proteins from fibroblasts. Immunoprecipitation was achieved by incubating cell homogenates with anti-IRS-1 antibody overnight at 4° C. followed by the addition of protein A/G-Agarose for additional two hours. Immunoprecipitates were separated using spin-collection filters (Cytosignal), washed once with RIPA buffer/3× with PBS and then elutated by the addition of Laemmli buffer. […] Antigen-antibody complexes were visualized by an enhanced chemiluminescence system on BioMax Light Film (Kodack) and then the densitometry was analyzed using Quantity One 1-D image software (BioRad, GS 800). All densitometry data were corrected for equal loading using the house keeping gene β-actin and they were expressed as fold change vs. control.
Background: In western blotting, separated proteins are transferred to a membrane and probed.

Test [3] is described as follows: Rapid insulin sensitivity test (RIST) with IGF-1 instead of insulin. Format: in vivo, rat. The following applies: diabetic/hypercortisolemic rats, chronic administration of antioxidant. The method, then: (§3) All animal procedures were performed in accordance with the NIH Guidance for the Care and Use of Laboratory Animals. The current study used, respectively the GK and Dexamethasone-treated rats as models for diabetes and hypercortisolemia. Dexamethasone was administered subcutaneously at a dose of 2.5 μg/kg body weight in the morning (8:00 AM) and in the evening (8:00 PM) for a duration of four weeks before wounding and this form of therapy continued during the course of healing. […] Weight and age-matched female Wistar rats (Kuwait University breeding colony) served as the corresponding controls. All of the animals were maintained under standard conditions with 12 hours on/off light cycle, commercial diet, and water ad libitum. GK rats destined for wounding were initially matched with regard to body weight (e.g., 230 to 250 g), and plasma levels of glucose, free fatty acids and insulin. These indices are commonly used to reflect the severity of the diabetic state.
(§4) Animals used for IGF-1 sensitivity (n=6/group) and wound healing (n=8) studies were partitioned into five study groups including control, diabetic, hypercortisolemic, diabetic+EUK and hypercortisolemic+EUK. The EUK-134 was administered for duration of four weeks before wound induction and it continued during the course of healing.
IGF-1 sensitivity in control, diabetic and hypercortisolemic animals was determined using the rapid insulin sensitivity test (RIST) with IGF-1 (200 μg/kg BW) infused instead of insulin. The RIST index is the amount of glucose per kg body weight required to maintain euglycemia following a bolus of insulin (50 mU/kg BW).

Test [4] in a line: Body weight and fasting plasma parameters in diabetic and hypercortisolemic rats. The class given is in vivo, rat. As to the method:
as §3, §4

The mark [5] stands for this setting: dexamethasone-treated (hypercortisolemic) rats + EUK-134 12.5 mg/kg ip every other day.
[6] abbreviates: diabetic (GK) rats + EUK-134 12.5 mg/kg ip every other day.

As to `COc1cccc(C=NCCN=Cc2cccc(OC)c2[O-])c1[O-].[Cl-].[Mn+3]` [EUK-134], the carbonylated protein accumulation entry in the test on protein-bound carbonyls is recorded as “returned to approximately normal”. Also, in the test with IRS-1 [1], the “phosphorylation of IRS-1 at Ser307” value is given as “diminishes Ser307 phosphorylation to levels comparable to the basal level in normal fibroblasts”. Further, the “proline uptake (collagen synthesis)” value in the test on dermal fibroblasts is on record as “returns it to approximately control levels”. Moreover, the “inhibition of IGF-1-induced IRS-1 Tyr612 phosphorylation” value in the test on IRS-1 [2] (diabetic fibroblasts or normal fibroblasts exposed to TNF-α or dexamethasone, EUK-134) is on record as “ameliorates the inhibition of IRS-1 phosphorylation”. For the same compound, the “common defect in IGF-1 signaling” value in the test with IRS-1 [2] (fibroblasts with diabetic, inflammatory or hypercortisolemia phenotypes, ROS suppressors) is “correct the common defect in IGF-1 signaling”. Moreover, the “improvement of glucose metabolism in response to bolus injection of IGF-1” value in test [3] was “about 20%”. Moreover, in test [4] (setting [5]), the “FBG (fasting blood glucose)” value came out at 81 ± 12 mg/dL, the “FFA (free fatty acid)” value turned out to be 327 ± 16 µM and the “FPI (fasting plasma insulin)” value worked out at 0.58 ± 0.052 ng/mL. In test [4] (setting [6]), the “FBG (fasting blood glucose)” value was determined as 122 ± 18 mg/dL, the “FFA (free fatty acid)” value was 353 ± 18 µM and the “FPI (fasting plasma insulin)” value was 0.66 ± 0.05 ng/mL. Moreover, the “abnormalities regarding lipid and carbohydrate profiles” value in test [4] (diabetic and hypercortisolemic rats, chronic treatment with ROS suppressors) is on record as “ameliorated”.
